# Measured values from patent US10253039B2, “Inhibitors of bacterial DNA gyrase with efficacy against gram-negative bacteria” (priority 2014, dated 2019).
# Tested on: Edwardsiella tarda
# Assay: MIC, microdilution in 96-well plates
# Type: cell-based
# Details: D: Edwardsiella tarda
# Protocol: (§1) A microdilution method in 96-well plates was used and the MIC protocol established by the Clinical Laboratory Standards Institute was followed. From a growing subculture, a 1:10000 inoculum of each strain in Luria-Bertani media was prepared and aliquoted 100 μL in 4 columns of wells, except for the top row wells, which contained 200 μL of inoculum. A solution of gyramide C2 was aliquoted into 3 of the wells containing 200 μL and DMSO was added to the 4th well. The liquid in each of wells was mixed with a multi-channel pipet and 100 μL was transferred to the next well and mixed. The 2-fold dilution was continued down the 96-well plate until 100 μL was left, which was discarded. The plates were incubated at 37° C. with shaking for 16-18 hours. The MIC was determined as the lowest concentration that inhibited growth and had no turbidity by visual inspection.
# (§2) Minimum inhibitory concentrations of various gyramide compounds against 20 strains of bacteria were determined using the procedure described above.
row,Structure (SMILES),MIC
1,O=S(=O)(N[C@@H]1CCN(Cc2ccc(-c3cccs3)cc2)C1)c1cccc(C(F)(F)F)c1 [Compound 32],> 8 µg/mL
2,N#Cc1cc(S(=O)(=O)N[C@@H]2CCN(Cc3ccc(OC4CC4)cc3)C2)ccc1Cl [Compound 119],> 8 µg/mL
3,CC(=O)c1cc(S(=O)(=O)N[C@@H]2CCN(Cc3ccc(-c4ccccc4)cc3)C2)ccc1C [Compound 68],> 8 µg/mL
4,Cc1ccncc1S(=O)(=O)N[C@@H]1CCN(Cc2ccc(OC(C)C)cc2)C1 [Compound 121],> 8 µg/mL
5,CC(C)(C)Oc1ccc(CN2CC[C@@H](NS(=O)(=O)c3cccc(OC(F)(F)F)c3)C2)cc1 [Compound 26],> 8 µg/mL

# Tested on: E. coli BW25113
# Assay: MIC, microdilution in 96-well plates
# Type: cell-based
# Details: Escherichia coli, BW25113, B: E. coli BW25113; read-out: MIC
# Protocol: as §1, §2
row,Structure (SMILES),MIC
1,O=S(=O)(N[C@@H]1CCN(Cc2ccc(-c3cccs3)cc2)C1)c1cccc(C(F)(F)F)c1 [Compound 32],> 8 µg/mL
2,N#Cc1cc(S(=O)(=O)N[C@@H]2CCN(Cc3ccc(OC4CC4)cc3)C2)ccc1Cl [Compound 119],> 8 µg/mL
3,CC(=O)c1cc(S(=O)(=O)N[C@@H]2CCN(Cc3ccc(-c4ccccc4)cc3)C2)ccc1C [Compound 68],> 8 µg/mL
4,Cc1ccncc1S(=O)(=O)N[C@@H]1CCN(Cc2ccc(OC(C)C)cc2)C1 [Compound 121],> 8 µg/mL
5,CC(C)(C)Oc1ccc(CN2CC[C@@H](NS(=O)(=O)c3cccc(OC(F)(F)F)c3)C2)cc1 [Compound 26],> 8 µg/mL

# Tested on: Streptococcus pyogenes
# Assay: MIC, 20-strain panel
# Type: cell-based
# Details: not given
# Protocol: as §1, §2
row,Structure (SMILES),MIC
1,O=S(=O)(N[C@@H]1CCN(Cc2ccc(-c3cccs3)cc2)C1)c1cccc(C(F)(F)F)c1 [Compound 32],8 µg/mL
2,N#Cc1cc(S(=O)(=O)N[C@@H]2CCN(Cc3ccc(OC4CC4)cc3)C2)ccc1Cl [Compound 119],> 8 µg/mL
3,CC(=O)c1cc(S(=O)(=O)N[C@@H]2CCN(Cc3ccc(-c4ccccc4)cc3)C2)ccc1C [Compound 68],> 8 µg/mL
4,Cc1ccncc1S(=O)(=O)N[C@@H]1CCN(Cc2ccc(OC(C)C)cc2)C1 [Compound 121],> 8 µg/mL
5,CC(C)(C)Oc1ccc(CN2CC[C@@H](NS(=O)(=O)c3cccc(OC(F)(F)F)c3)C2)cc1 [Compound 26],> 8 µg/mL

# Tested on: Klebsiella pneumoniae subsp. pneumoniae
# Assay: MIC, 20-strain panel
# Type: cell-based
# Details: E: Klebsiella pneumoniae subsp. pneumoniae
# Protocol: as §1, §2
row,Structure (SMILES),MIC
1,O=S(=O)(N[C@@H]1CCN(Cc2ccc(-c3cccs3)cc2)C1)c1cccc(C(F)(F)F)c1 [Compound 32],> 8 µg/mL
2,N#Cc1cc(S(=O)(=O)N[C@@H]2CCN(Cc3ccc(OC4CC4)cc3)C2)ccc1Cl [Compound 119],> 8 µg/mL
3,CC(=O)c1cc(S(=O)(=O)N[C@@H]2CCN(Cc3ccc(-c4ccccc4)cc3)C2)ccc1C [Compound 68],> 8 µg/mL
4,Cc1ccncc1S(=O)(=O)N[C@@H]1CCN(Cc2ccc(OC(C)C)cc2)C1 [Compound 121],> 8 µg/mL
5,CC(C)(C)Oc1ccc(CN2CC[C@@H](NS(=O)(=O)c3cccc(OC(F)(F)F)c3)C2)cc1 [Compound 26],> 8 µg/mL

# Tested on: Staphylococcus epidermidis
# Assay: MIC, 20-strain panel
# Type: cell-based
# Details: not given
# Protocol: as §1, §2
row,Structure (SMILES),MIC
1,O=S(=O)(N[C@@H]1CCN(Cc2ccc(-c3cccs3)cc2)C1)c1cccc(C(F)(F)F)c1 [Compound 32],8 µg/mL
2,N#Cc1cc(S(=O)(=O)N[C@@H]2CCN(Cc3ccc(OC4CC4)cc3)C2)ccc1Cl [Compound 119],> 8 µg/mL
3,CC(=O)c1cc(S(=O)(=O)N[C@@H]2CCN(Cc3ccc(-c4ccccc4)cc3)C2)ccc1C [Compound 68],8 µg/mL
4,Cc1ccncc1S(=O)(=O)N[C@@H]1CCN(Cc2ccc(OC(C)C)cc2)C1 [Compound 121],> 8 µg/mL
5,CC(C)(C)Oc1ccc(CN2CC[C@@H](NS(=O)(=O)c3cccc(OC(F)(F)F)c3)C2)cc1 [Compound 26],> 8 µg/mL

# Tested on: Shigella flexneri
# Assay: MIC, 20-strain panel
# Type: cell-based
# Details: G: Shigella flexneri
# Protocol: as §1, §2
row,Structure (SMILES),MIC
1,O=S(=O)(N[C@@H]1CCN(Cc2ccc(-c3cccs3)cc2)C1)c1cccc(C(F)(F)F)c1 [Compound 32],> 8 µg/mL
2,N#Cc1cc(S(=O)(=O)N[C@@H]2CCN(Cc3ccc(OC4CC4)cc3)C2)ccc1Cl [Compound 119],> 8 µg/mL
3,CC(=O)c1cc(S(=O)(=O)N[C@@H]2CCN(Cc3ccc(-c4ccccc4)cc3)C2)ccc1C [Compound 68],> 8 µg/mL
4,Cc1ccncc1S(=O)(=O)N[C@@H]1CCN(Cc2ccc(OC(C)C)cc2)C1 [Compound 121],> 8 µg/mL
5,CC(C)(C)Oc1ccc(CN2CC[C@@H](NS(=O)(=O)c3cccc(OC(F)(F)F)c3)C2)cc1 [Compound 26],> 8 µg/mL

# Tested on: E. coli MG1655
# Assay: MIC, 20-strain panel
# Type: cell-based
# Details: Escherichia coli, MG1655, A: E. coli MG1655; read-out: MIC
# Protocol: as §1, §2
row,Structure (SMILES),MIC
1,O=S(=O)(N[C@@H]1CCN(Cc2ccc(-c3cccs3)cc2)C1)c1cccc(C(F)(F)F)c1 [Compound 32],> 8 µg/mL
2,N#Cc1cc(S(=O)(=O)N[C@@H]2CCN(Cc3ccc(OC4CC4)cc3)C2)ccc1Cl [Compound 119],> 8 µg/mL
3,CC(=O)c1cc(S(=O)(=O)N[C@@H]2CCN(Cc3ccc(-c4ccccc4)cc3)C2)ccc1C [Compound 68],> 8 µg/mL
4,Cc1ccncc1S(=O)(=O)N[C@@H]1CCN(Cc2ccc(OC(C)C)cc2)C1 [Compound 121],> 8 µg/mL
5,CC(C)(C)Oc1ccc(CN2CC[C@@H](NS(=O)(=O)c3cccc(OC(F)(F)F)c3)C2)cc1 [Compound 26],> 8 µg/mL

# Tested on: Staphylococcus saprophyticus subsp. saprophyticus
# Assay: MIC, 20-strain panel
# Type: cell-based
# Details: not given
# Protocol: as §1, §2
row,Structure (SMILES),MIC
1,O=S(=O)(N[C@@H]1CCN(Cc2ccc(-c3cccs3)cc2)C1)c1cccc(C(F)(F)F)c1 [Compound 32],> 8 µg/mL
2,N#Cc1cc(S(=O)(=O)N[C@@H]2CCN(Cc3ccc(OC4CC4)cc3)C2)ccc1Cl [Compound 119],> 8 µg/mL
3,CC(=O)c1cc(S(=O)(=O)N[C@@H]2CCN(Cc3ccc(-c4ccccc4)cc3)C2)ccc1C [Compound 68],> 8 µg/mL
4,Cc1ccncc1S(=O)(=O)N[C@@H]1CCN(Cc2ccc(OC(C)C)cc2)C1 [Compound 121],> 8 µg/mL
5,CC(C)(C)Oc1ccc(CN2CC[C@@H](NS(=O)(=O)c3cccc(OC(F)(F)F)c3)C2)cc1 [Compound 26],> 8 µg/mL

# Tested on: Streptococcus agalactiae
# Assay: MIC, 20-strain panel
# Type: cell-based
# Details: not given
# Protocol: as §1, §2
row,Structure (SMILES),MIC
1,O=S(=O)(N[C@@H]1CCN(Cc2ccc(-c3cccs3)cc2)C1)c1cccc(C(F)(F)F)c1 [Compound 32],> 8 µg/mL
2,N#Cc1cc(S(=O)(=O)N[C@@H]2CCN(Cc3ccc(OC4CC4)cc3)C2)ccc1Cl [Compound 119],> 8 µg/mL
3,CC(=O)c1cc(S(=O)(=O)N[C@@H]2CCN(Cc3ccc(-c4ccccc4)cc3)C2)ccc1C [Compound 68],> 8 µg/mL
4,Cc1ccncc1S(=O)(=O)N[C@@H]1CCN(Cc2ccc(OC(C)C)cc2)C1 [Compound 121],> 8 µg/mL
5,CC(C)(C)Oc1ccc(CN2CC[C@@H](NS(=O)(=O)c3cccc(OC(F)(F)F)c3)C2)cc1 [Compound 26],> 8 µg/mL

# Tested on: Staphylococcus aureus subsp. aureus
# Assay: MIC, 20-strain panel
# Type: cell-based
# Details: H: Staphylococcus aureus subsp. aureus, read-out: MIC
# Protocol: as §1, §2
row,Structure (SMILES),MIC
1,O=S(=O)(N[C@@H]1CCN(Cc2ccc(-c3cccs3)cc2)C1)c1cccc(C(F)(F)F)c1 [Compound 32],> 8 µg/mL
2,N#Cc1cc(S(=O)(=O)N[C@@H]2CCN(Cc3ccc(OC4CC4)cc3)C2)ccc1Cl [Compound 119],> 8 µg/mL
3,CC(=O)c1cc(S(=O)(=O)N[C@@H]2CCN(Cc3ccc(-c4ccccc4)cc3)C2)ccc1C [Compound 68],> 8 µg/mL
4,Cc1ccncc1S(=O)(=O)N[C@@H]1CCN(Cc2ccc(OC(C)C)cc2)C1 [Compound 121],> 8 µg/mL
5,CC(C)(C)Oc1ccc(CN2CC[C@@H](NS(=O)(=O)c3cccc(OC(F)(F)F)c3)C2)cc1 [Compound 26],> 8 µg/mL

# Tested on: Salmonella enterica subsp. enterica typhimurium
# Assay: MIC, 20-strain panel
# Type: cell-based
# Details: F: Salmonella enterica subsp. enterica Typhimurium
# Protocol: as §1, §2
row,Structure (SMILES),MIC
1,O=S(=O)(N[C@@H]1CCN(Cc2ccc(-c3cccs3)cc2)C1)c1cccc(C(F)(F)F)c1 [Compound 32],8 µg/mL
2,N#Cc1cc(S(=O)(=O)N[C@@H]2CCN(Cc3ccc(OC4CC4)cc3)C2)ccc1Cl [Compound 119],> 8 µg/mL
3,CC(=O)c1cc(S(=O)(=O)N[C@@H]2CCN(Cc3ccc(-c4ccccc4)cc3)C2)ccc1C [Compound 68],> 8 µg/mL
4,Cc1ccncc1S(=O)(=O)N[C@@H]1CCN(Cc2ccc(OC(C)C)cc2)C1 [Compound 121],> 8 µg/mL
5,CC(C)(C)Oc1ccc(CN2CC[C@@H](NS(=O)(=O)c3cccc(OC(F)(F)F)c3)C2)cc1 [Compound 26],> 8 µg/mL

# Tested on: E. coli JW5503 (deltolC)
# Assay: MIC, 20-strain panel
# Type: cell-based
# Details: Escherichia coli, C: E. coli JW5503 (deltolC)
# Protocol: as §1, §2
row,Structure (SMILES),MIC
1,O=S(=O)(N[C@@H]1CCN(Cc2ccc(-c3cccs3)cc2)C1)c1cccc(C(F)(F)F)c1 [Compound 32],1 µg/mL
2,N#Cc1cc(S(=O)(=O)N[C@@H]2CCN(Cc3ccc(OC4CC4)cc3)C2)ccc1Cl [Compound 119],> 8 µg/mL
3,CC(=O)c1cc(S(=O)(=O)N[C@@H]2CCN(Cc3ccc(-c4ccccc4)cc3)C2)ccc1C [Compound 68],8 µg/mL
4,Cc1ccncc1S(=O)(=O)N[C@@H]1CCN(Cc2ccc(OC(C)C)cc2)C1 [Compound 121],~8 µg/mL
5,CC(C)(C)Oc1ccc(CN2CC[C@@H](NS(=O)(=O)c3cccc(OC(F)(F)F)c3)C2)cc1 [Compound 26],0.5 µg/mL
